Laboratory results reported in US20180153897A1, “RIBOFLAVIN FOR THE TREATMENT OF ISCHEMIC STROKE AND/OR OTHER GLUTAMATE EXCITOTOXICITY-ASSOCIATED DISEASES” (priority 2015, published 2018).
Structures can show the parent of a compound that is named as a salt. Where two headings read alike, the source gives them in different places.

Columns and labels:
recombinant human GOT = target: T1, recombinant human GOT (Homo sapiens, UniProt P17174); assay: GOT activity assay (inhibition of glutamate formation), photometric kit; assay type: biochemical; details: for Maximum of inhibition of glutamate formation in confirmatory assay (%): confirmatory dose-response assay
T1 construct: purchased Abcam ab99147

[1] = target: T2, succinate dehydrogenase (SDH) (Homo sapiens, UniProt P31040); assay: Complex II Enzyme Activity Microplate Assay (SDH inhibition); assay type: biochemical; details: dose-response curve, FIG. 1; enzyme extracted from HepG2 cells
T2 construct: endogenous in cells; host or cells: HepG2 (ATCC HB-8065); complex captured with Abcam Complex II Enzyme Activity Microplate Assay ab109908
From the text: To evaluate possible toxic effects on SDH, a secondary assay was set up, using Complex II Enzyme Activity Microplate Assay (from Abcam, ref. ab109908), based on the detection of 2,6-diclorophenolindophenol (DCPID), blue, which is reduced in contact with Ubiquinol, turning colorless and involving the measurement of a decrease in absorbance at 595 nm. The enzyme was extracted from HepG2 cells (ATCC, ref. HB-8065), following manufacturer's instructions.

blood glutamate [2] = assay: Blood glutamate lowering in healthy animals; assay type: in vivo, rat; details: healthy rats; for percentage of blood glutamate lowering (respect to basal levels): riboflavin 1, 10 and 50 mg/Kg i.v.
Description: Experimental protocols were approved by the local Animal Care Committee according to the European Union (EU) rules (86/609/CEE, 2003/65/CE and 2010/63/EU). Male Sprague-Dawley rats (Harlan Laboratories, Barcelona, Spain) with an average weight of 350 g were used. Rats were watered and fed ad libitum. The dose-response effect of riboflavin on blood glutamate lowering was determined in healthy animals. Three (3) doses of riboflavin were tested (i.v.), 1, 10 and 50 mg/Kg (weight of animal). As control group was used animals treated with saline (0.9% of NaCl, pH adjusted to 7.4), and as positive control group, animals treated with oxaloacetate 35 mg/Kg. […] A total of 6 animals per group were included in this study. […] With this purpose, dose of 35mg/Kg (average weight of animals: 350 g) of oxaloacetate (Ref 171263, Sigma) was prepared in a saline solution (0.9% of NaCl, pH adjusted to 7.4) at a final concentration of 12.25 mg/mL. Dose of 15 mg/Kg of oxaloacetate was prepared in saline solution (0.9% of NaCl, pH adjusted to 7.4) at a final concentration of 5.25 mg/mL. Dose of 1 mg/Kg of riboflavin (Ref. 4500, Sigma) initially dissolved in a minimal amount of dimethyl sulfoxide (DMSO) and then dissolved in a saline solution (0.9% of NaCl, pH adjusted to 7.4) at a final concentration of 0.35 mg/mL. […] Serum samples were collected in test tubes, centrifuged at 3000 r.p.m. for 7 min, serum was removed and immediately frozen and stored at −80 ° C. Serum glutamate concentration was determined by means of Glutamate Assay Kit (Abnova, Taipei City, Taiwan) following the manufacturer's technical specifications.

blood glutamate [3] = assay: Blood glutamate in ischemic (MCAO) animals; assay type: in vivo, rat; details: MCAO rats, 2 hours after administration
Description: Treatments were administered after artery reperfusion (45 min after occlusion). A total of 10 animals per group were included in this study. […] Infarct volume analysis were evaluated during the occlusion (30 min after occlusion), and 24h and 7 days after ischemia induction. Infarct volume determined at 30 min after artery occlusion (analyzed by diffusion weighted imaging, DWI) (Perez-Mato, M., et al., Cell Death Dis., 2014, 5:e992) was determined before treatments administration to confirm that all animals included in the study were submitted to the same ischemic insult. These values were used as basal infarct volume. […] With this purpose, dose of 35mg/Kg (average weight of animals: 350 g) of oxaloacetate (Ref 171263, Sigma) was prepared in a saline solution (0.9% of NaCl, pH adjusted to 7.4) at a final concentration of 12.25 mg/mL. […] Dose of 1 mg/Kg of riboflavin (Ref. 4500, Sigma) initially dissolved in a minimal amount of dimethyl sulfoxide (DMSO) and then dissolved in a saline solution (0.9% of NaCl, pH adjusted to 7.4) at a final concentration of 0.35 mg/mL. […] Serum samples were collected in test tubes, centrifuged at 3000 r.p.m. for 7 min, serum was removed and immediately frozen and stored at −80 ° C. Serum glutamate concentration was determined by means of Glutamate Assay Kit (Abnova, Taipei City, Taiwan) following the manufacturer's technical specifications. […]

MCAO rats = assay: Infarct volume by MRI in MCAO rats; assay type: in vivo, rat; details: riboflavin 1 mg/Kg, 24 h and 7 days after ischemia
Description: Four (4) experimental groups were performed: 1) a control group treated with saline (0.9% of NaCl, pH adjusted to 7.4), 2) a group treated with riboflavin 1 mg/Kg, 3) a group treated with riboflavin 1 mg/Kg in combination with dose of oxaloacetate a non-effective (15 mg/Kg) and 4) a positive control group treated with oxaloacetate 35 mg/Kg. […] Treatments were administered after artery reperfusion (45 min after occlusion). A total of 10 animals per group were included in this study. […] Infarct volume analysis were evaluated during the occlusion (30 min after occlusion), and 24h and 7 days after ischemia induction. Infarct volume determined at 30 min after artery occlusion (analyzed by diffusion weighted imaging, DWI) (Perez-Mato, M., et al., Cell Death Dis., 2014, 5:e992) was determined before treatments administration to confirm that all animals included in the study were submitted to the same ischemic insult. These values were used as basal infarct volume. […] Infarct volume, also referred herein as infarct size, was assessed by means of magnetic resonance imaging (MRI). […] Infarct volumes were determined from (ADC maps) and T2-weighted images by manually selecting areas of reduced ADC values or hyperintense T2 signal by a researcher blinded to the animal protocols.

[4] = inhibition of glutamate formation, confirmatory assay, read-out: IC50(μM) in confirmatory assay
[5] = dose-response curve, FIG. 1, read-out: IC50 (GOT)

T1 sequence (P17174 whole entry): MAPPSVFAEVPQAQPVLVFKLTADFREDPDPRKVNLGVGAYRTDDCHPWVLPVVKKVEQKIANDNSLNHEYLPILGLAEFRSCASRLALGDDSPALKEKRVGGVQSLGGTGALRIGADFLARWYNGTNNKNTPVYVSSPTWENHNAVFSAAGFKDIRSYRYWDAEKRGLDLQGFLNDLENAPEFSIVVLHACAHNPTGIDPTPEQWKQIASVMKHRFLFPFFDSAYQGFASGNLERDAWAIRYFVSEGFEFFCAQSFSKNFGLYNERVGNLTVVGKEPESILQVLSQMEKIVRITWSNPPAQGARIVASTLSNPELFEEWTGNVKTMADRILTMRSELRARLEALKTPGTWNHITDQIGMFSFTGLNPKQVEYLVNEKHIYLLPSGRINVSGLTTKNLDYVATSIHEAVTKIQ
T2 sequence (P31040 43-664): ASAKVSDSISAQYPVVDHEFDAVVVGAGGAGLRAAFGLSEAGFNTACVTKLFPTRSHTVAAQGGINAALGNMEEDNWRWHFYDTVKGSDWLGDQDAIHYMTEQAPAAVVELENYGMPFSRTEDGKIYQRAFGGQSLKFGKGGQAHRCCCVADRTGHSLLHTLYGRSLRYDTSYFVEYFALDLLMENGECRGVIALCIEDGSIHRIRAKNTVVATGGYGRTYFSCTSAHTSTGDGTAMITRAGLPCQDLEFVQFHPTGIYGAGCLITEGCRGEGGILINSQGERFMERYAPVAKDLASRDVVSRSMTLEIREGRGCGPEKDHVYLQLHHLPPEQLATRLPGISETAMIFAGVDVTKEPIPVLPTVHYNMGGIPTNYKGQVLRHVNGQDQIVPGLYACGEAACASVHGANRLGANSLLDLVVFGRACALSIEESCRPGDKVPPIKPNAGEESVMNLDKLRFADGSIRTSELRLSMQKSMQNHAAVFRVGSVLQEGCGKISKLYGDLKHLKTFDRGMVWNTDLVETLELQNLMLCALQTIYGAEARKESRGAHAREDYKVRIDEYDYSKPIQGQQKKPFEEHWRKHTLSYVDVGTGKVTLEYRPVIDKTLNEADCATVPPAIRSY
T2 sequence (P21912 29-280 partner): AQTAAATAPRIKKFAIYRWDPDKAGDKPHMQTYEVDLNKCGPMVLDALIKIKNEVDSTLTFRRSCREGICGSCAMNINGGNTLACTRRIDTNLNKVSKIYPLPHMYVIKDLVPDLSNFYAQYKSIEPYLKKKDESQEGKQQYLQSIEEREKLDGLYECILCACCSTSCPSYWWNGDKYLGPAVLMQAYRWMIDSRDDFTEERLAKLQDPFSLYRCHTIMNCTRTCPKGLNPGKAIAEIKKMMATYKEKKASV
T2 sequence (Q99643 30-169 partner): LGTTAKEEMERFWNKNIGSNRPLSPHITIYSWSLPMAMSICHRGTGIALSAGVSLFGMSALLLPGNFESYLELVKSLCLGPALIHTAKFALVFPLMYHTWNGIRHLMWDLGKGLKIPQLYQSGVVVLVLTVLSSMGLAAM
T2 sequence (O14521 57-159 partner): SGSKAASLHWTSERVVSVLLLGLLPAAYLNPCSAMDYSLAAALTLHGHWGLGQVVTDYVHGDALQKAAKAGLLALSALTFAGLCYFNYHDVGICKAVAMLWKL

Row | Compound | Maximum of inhibition of glutamate formation in confirmatory assay (%) (recombinant human GOT) | IC50 (recombinant human GOT; [4]) | IC50 (recombinant human GOT; [5]) | IC50 [1] | further results
1 | CC(CCc1ccc(O)cc1)NCCc1ccc(O)c(O)c1 (centres unmarked) [CBG000332, Dobutamine hydrochloride] | 35.5% | 81.7 µM |  |  | 
2 | Cc1cc2nc3c(=O)[nH]c(=O)nc-3n(C[C@H](O)[C@H](O)[C@H](O)CO)c2cc1C [CBG000592, 7,8-dimethyl-10-[(2S,3S,4R)-2,3,4,5-tetrahydroxypentyl]benzo[g]pteridine-2,4-dione] | 63% | 1.96 µM | 1.9 µM | 10.8 µM | percentage of blood glutamate lowering (respect to basal levels) (blood glutamate [2]; 30 min): about 25%; percentage of blood glutamate lowering (respect to basal levels) (blood glutamate [2]; 2 h): about 50%; percentage of blood glutamate lowering (respect to basal levels) (blood glutamate [2]; 4 h): 60%; percentage of blood glutamate lowering (respect to basal levels) (blood glutamate [2]; 6 h): 50%; reduction of blood glutamate levels respect to basal levels (blood glutamate [3]; riboflavin 1 mg/Kg at reperfusion): about 30%; lesion size (infarct volume) versus control (MCAO rats): significant (p<0.001) decrease of lesion size
3 | CN1CCc2cccc3c2[C@H]1Cc1ccc(O)c(O)c1-3.CN1CCc2cccc3c2[C@H]1Cc1ccc(O)c(O)c1-3.Cl.Cl.O [CBG000083, R-(−)-Apomorphine hydrochloride hemihydrate] | 56.5% | 58.1 µM |  |  | 
4 | Doxycycline hyclate [CBG000814] | 32% | 15.1 µM |  |  | 
5 | O=C(O)CC(=O)C(=O)O [oxaloacetate, 3-carboxy-3-oxopropanoate] |  |  | 130 µM | 1.8 µM | percentage of glutamate levels reduction (blood glutamate [2]; oxaloacetate 35 mg/Kg i.v., 2, 4 and 6 hours): ≤ 40%; reduction of blood glutamate levels (blood glutamate [2]; oxaloacetate 35 mg/Kg i.v., 30 min): no effect; reduction of blood glutamate levels respect to basal levels (blood glutamate [3]; oxaloacetate 35 mg/Kg at reperfusion): about 30%
6 | (−)-3-(3,4-Dihydroxyphenyl)-2-methyl-L-alanine sesquihydrate [CBG000361] | 38.5% | 117 µM |  |  | 
